Data taken from patent publication US20190359645A1, “2'3'-CYCLIC DINUCLEOTIDES COMPRISING CARBOCYCLIC NUCLEOTIDE” (Institute of Organic Chemistry and Biochemistry ASCR, V.V.I., priority 2018, published 2019).

Columns and labels:
AQ STING (G230A-R293Q) = biological target: T1, AQ STING (G230A-R293Q) (Homo sapiens, UniProt Q86WV6, G230A/H232R/R293Q); assay: Differential scanning fluorimetry (DSF) with AQ STING; assay type: binding; conditions: thermal shift, truncated human AQ STING 0.1 mg/ml, 150 μM CDN; read-out: DSF ΔTm AQ STING
T1 construct: truncated human WT STING or AQ STING (amino acid residues 140-343); 8xHis (N, cleaved yes); SUMO (N, cleaved yes); made in house; host or cells: E. coli Rosetta-gami B (DE3)
Excerpt: (§1) Both WT and AQ human STING (G230A-R^293Q) cDNA were amplified by the use of PCR (Phusion® High-Fidelity DNA Polymerase, cat. # M0530S, NEB, Ipswich, USA) using oligonucleotides hSTING140-BamH-For ([…]) (SEQ ID NO:5) and hSTING379-Not-Rev3 ([…]) (SEQ ID NO:6) from pUNOI-hSTING-WT (cat. # punol-hstingwt, InvivoGen, San Diego, USA) and pUNO1-hSTING-HAQ plasmids (punol-hsting-haq, InvivoGen, San Diego, USA). Purified PCR products were cleaved with restriction enzymes BamHI (cat. # R^0136S, NEB, Ipswich, USA) and NotI (cat. # R^0189S, NEB, Ipswich, USA) and cloned into the pSUMO vector linearized with the identical enzymes. Plasmid pSUMO was created by introducing 8-His-SUMO sequence between NdeI and BamHI sites of pHis-parallel2 plasmid (Clontech, Moutain View, USA). pSUMO-STING WT or pSUMO-STING AQ plasmids thus encoded truncated human WT STING or AQ STING (amino acid residues 140-343) with N-terminal 8×His and SUMO tag.
(§2) The recombinant WT STING and AQ STING proteins were overexpressed in Rosetta-gami B (DE3) competent cells (cat. #71136-3, Merck Millipore, Billerica, USA). Bacterial pellets were re-suspended in ice-cold lysis buffer containing 50 mmol·l^−1 TrisCl (cat. # T1503, Sigma Aldrich, Czech Republic) pH 8.0, 300 mmol·l^−1 NaCl, 3 mmol·l^−1 (3-mercaptoethanol (cat. # M6250, Sigma Aldrich, Czech Republic), 10% glycerol (cat. #G5516, Sigma Aldrich, Czech Republic) and 20 mmol·l^−1 imidazole (cat. #15513, Sigma Aldrich, Czech Republic) using Dounce homogenizer. DNase I (cat. # D5025, Sigma Aldrich, Czech Republic) and RNase A (cat. # R^6513, Sigma Aldrich, Czech Republic) were added (final concentration 50 μg/ml) together with MgCl2 (final concentration 5 mmol·l^−1) to the homogenate and bacteria were lysed using French Press G-M™ High-Pressure Cell Press Homogenizer (1500 psi, 3 cycles). Lysate was spun 30,000 g for 20 minutes and supernatant was gently stirred with Ni-NTA resin (cat. #745400.25 Macherey-Nagel, Duren, Germany) for 30 minutes. The resin was poured into a chromatography column, washed with 50 ml buffer A (50 mmol·l^−1 TrisCl (pH 8.0), 800 mmol·l^−1 NaCl, 3 mmol·l^−1β-mercaptoethanol; 10% glycerol; 20 mmol·l^−1 imidazole) and 8-His-SUMO tagged STING proteins were eluted with 15 ml buffer A containing 300 mmol·l^−1 imidazole. The eluted proteins were cleaved with recombinant SUMO protease (80 pig/ml of protein solution, cat. #12588018, ThermoFisher, Waltham, USA). The proteins were further purified by size exclusion chromatography using HiLoad 16/60 Superdex 75 (cat. #28989333, GE Healthcare Bio-Sciences, Pittsburgh, USA) in 50 mmol·l^−1 Tris C1 buffer pH 7.4 containing 150 mmol·l^−1 NaCl, and 10% glycerol. Proteins were concentrated with Amicon® Ultra-15 10 K device (cat. # UFC901008, Merck Millipore, Billerica, USA) and flash frozen in liquid N2.
(§3) WT and AQ allelic forms of STING protein were diluted to the final concentration 0.1 mg/ml in 100 mmol·l^−1 TrisCl buffer pH 7.4 containing, 150 mmol·l^−1 NaCl, 1:500 SYPRO Orange (cat. # S6650, ThermoFisher, Waltham, USA) and 150 μM CDN or water. 20 μL solutions of the reaction mixtures were pipetted in triplicates into 96 well optical reaction plates and thermal denaturation of samples were performed on real time PCR cycler (LightCycler® 480 Instrument II—Roche, Basel, Switzerland). The first derivative of the thermal denaturation curves was performed to calculate denaturing temperatures of STING-CDN complexes and STING apoproteins. The thermal shift for each CDN was calculated by subtracting the average denaturing temperature of STING apoprotein from the average denaturing temperature of STING CDN complex.

WT STING = WT STING (Homo sapiens, UniProt Q86WV6, H232R); assay: Differential scanning fluorimetry (DSF) with WT STING; assay type: binding; set-up: truncated human WT STING or AQ STING (amino acid residues 140-343); 8xHis (N, cleaved yes); SUMO (N, cleaved yes); made in house; host or cells: E. coli Rosetta-gami B (DE3); conditions: thermal shift, truncated human WT STING 0.1 mg/ml, 150 μM CDN; read-out: DSF ΔTm WT STING
Excerpt: as §1, §2, §3

T1 sequence (Q86WV6 140-343 G230A/H232R/R293Q): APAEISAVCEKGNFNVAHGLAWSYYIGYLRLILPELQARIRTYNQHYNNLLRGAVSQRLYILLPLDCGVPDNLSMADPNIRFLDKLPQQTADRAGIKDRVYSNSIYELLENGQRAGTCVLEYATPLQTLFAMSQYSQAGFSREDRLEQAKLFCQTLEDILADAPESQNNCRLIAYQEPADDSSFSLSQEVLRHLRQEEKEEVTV
Sequence of WT STING (Q86WV6 140-343 H232R): as the sequence (Q86WV6 140-343 G230A/H232R/R293Q) above, with A91G, Q154R counted along it

| ΔTm at 150 µM (AQ STING (G230A-R293Q)) [°C] | ΔTm at 150 µM (WT STING) [°C] | Compound |
| --- | --- | --- |
| 10.1 | 4.9 | CSc1ncnc2c1ncn2[C@@H]1O[C@@H]2COP(=O)(O)OC3C(O)[C@@H](COP(=O)(O)OC2C1O)C[C@H]3n1cnc2c(=O)[nH]c(N)nc21 (stereo partly drawn) [Compound 110, (6R,8R,15R,17R)-17-(2-amino-6-oxo-6,9-dihydro-1H-purin-9-yl)-3,9,12,18-tetrahydroxy-8-[6-(methylsulfanyl)-9H-purin-9-yl]-2,4,7,11,13-pentaoxa-3λ^5,12λ^5-diphosphatricyclo[13.2.1.0^6,10]octadecane-3,12-dione] |
| 13 | 5.1 | Nc1nc2c(ncn2[C@@H]2C[C@@H]3COP(=O)(O)OC4C(F)[C@H](n5cnc6c(N)nc(F)nc65)O[C@@H]4COP(=O)(O)OC2C3O)c(=O)[nH]1 (stereo partly drawn) [Compound 111, (6R,8R,15R,17R)-8-(6-amino-2-fluoro-9H-purin-9-yl)-17-(2-amino-6-oxo-6,9-dihydro-1H-purin-9-yl)-9-fluoro-3,12,18-trihydroxy-2,4,7,11,13-pentaoxa-3λ^5,12λ^5-diphosphatricyclo[13.2.1.0^6,10]octadecane-3,12-dione] |
| 4.7 | 0.6 | CSc1nc(N)nc2c1ncn2[C@@H]1O[C@@H]2COP(=O)(O)OC3C(O)[C@@H](COP(=O)(O)OC2C1O)C[C@H]3n1cnc2c(=O)[nH]c(N)nc21 (stereo partly drawn) [Compound 112, (6R,8R,15R,17R)-8-[2-amino-6-(methylsulfanyl)-9H-purin-9-yl]-17-(2-amino-6-oxo-6,9-dihydro-1H-purin-9-yl)-3,9,12,18-tetrahydroxy-2,4,7,11,13-pentaoxa-3λ^5,12λ^5-diphosphatricyclo[13.2.1.0^6,10]octadecane-3,12-dione] |
| 11.6 | 6 | Cc1cn([C@@H]2O[C@@H]3COP(=O)(O)OC4C(O)[C@@H](COP(=O)(O)OC3C2O)C[C@H]4n2cnc3c(=O)[nH]c(N)nc32)c2ncnc(N)c12 (stereo partly drawn) [Compound 113, (6R,8R,15R,17R)-8-{4-amino-5-methyl-7H-pyrrolo[2,3-d]pyrimidin-7-yl}-17-(2-amino-6-oxo-6,9-dihydro-1H-purin-9-yl)-3,9,12,18-tetrahydroxy-2,4,7,11,13-pentaoxa-3λ^5,12λ^5-diphosphatricyclo[13.2.1.0^6,10]octadecane-3,12-dione] |
| 10.3 | 4.4 | C#Cc1cn([C@@H]2O[C@@H]3COP(=O)(O)OC4C(O)[C@@H](COP(=O)(O)OC3C2O)C[C@H]4n2cnc3c(=O)[nH]c(N)nc32)c2ncnc(N)c12 (stereo partly drawn) [Compound 114, (6R,8R,15R,17R)-8-{4-amino-5-ethynyl-7H-pyrrolo 2,3-dlpyrimidin-7-yl}-17-(2-amino-6-oxo-6,9-dihydro-1H-purin-9-yl)-3,9,12,18-tetrahydroxy-2,4,7,11,13-pentaoxa-3λ^5,12λ^5-diphosphatricyclo[13.2.1.0^6,10]octadecane-3,12-dione] |
| 14.2 | 6.3 | Nc1nc2c(ncn2[C@@H]2C[C@@H]3COP(=O)(O)OC4C(O)[C@H](n5cnc6c(Cl)ncnc65)O[C@@H]4COP(=O)(O)OC2C3O)c(=O)[nH]1 (stereo partly drawn) [Compound 115, (6R,8R,15R,17R)-17-(2-amino-6-oxo-6,9-dihydro-1H-purin-9-yl)-8-(6-chloro-9H-purin-9-yl)-3,9,12,18-tetrahydroxy-2,4,7,11,13-pentaoxa-3λ^5,12λ^5-diphosphatricyclo[13.2.1.0^6,10]octadecane-3,12-dione] |
| 8.9 | 0.9 | Nc1nc2c(ncn2[C@@H]2C[C@@H]3COP(=O)(O)OC4C(O)[C@H](n5nnc6c(N)ncnc65)O[C@@H]4COP(=O)(O)OC2C3O)c(=O)[nH]1 (stereo partly drawn) [Compound 116, (6R,8R,15R,17R)-8-{7-amino-3H-[1,2,3]triazolo[4,5-d]pyrimidin-3-yl}-17-(2-amino-6-oxo-6,9-dihydro-1H-purin-9-yl)-3,9,12,18-tetrahydroxy-2,4,7,11,13-pentaoxa-3λ^5,12λ^5-diphosphatricyclo[13.2.1.0^6,10]octadecane-3,12-dione] |
| 17 | 9.4 | Nc1nc(N)c2ncn([C@@H]3O[C@@H]4COP(=O)(O)OC5C(O)[C@@H](COP(=O)(O)OC4C3F)C[C@H]5n3cnc4c(=O)[nH]c(N)nc43)c2n1 (stereo partly drawn) [Compound 117, (6R,8R,15R,17R)-17-(2-amino-6-oxo-6,9-dihydro-1H-purin-9-yl)-8-(2,6-diamino-9H-purin-9-yl)-9-fluoro-3,12,18-trihydroxy-2,4,7,11,13-pentaoxa-3λ^5,12λ^5-diphosphatricyclo[13.2.1.0^6,10]octadecane-3,12-dione] |
| 16 | 8.5 | Nc1nc2c(ncn2[C@@H]2C[C@@H]3COP(=O)(S)OC4C(O)[C@H](n5cnc6c(N)ncnc65)O[C@@H]4COP(=O)(O)OC2C3O)c(=O)[nH]1 (stereo partly drawn) [Compound 118, (6R,8R,15R,17R)-17-(2-amino-6-oxo-6,9-dihydro-1H-purin-9-yl)-8-(6-amino-9H-purin-9-yl)-3,9,18-trihydroxy-12-sulfanyl-2,4,7,11,13-pentaoxa-3λ^5,12λ^5-diphosphatricyclo[13.2.1.0^6,10]octadecane-3,12-dione] |
| 13.7 | 5.2 | Nc1ncc2ncn([C@@H]3O[C@@H]4COP(=O)(O)OC5C(O)[C@@H](COP(=O)(O)OC4C3O)C[C@H]5n3cnc4c(=O)[nH]cnc43)c2n1 (stereo partly drawn) [Compound 119, (6R,8R,15R,17R)-8-(2-amino-9H-purin-9-yl)-3,9,12,18-tetrahydroxy-17-(6-oxo-6,9-dihydro-1H-purin-9-yl)-2,4,7,11,13-pentaoxa-3λ^5,12λ^5-diphosphatricyclo[13.2.1.0^6,10]octadecane-3,12-dione] |
| 18.3 | 10.6 | Nc1ncnc2c1ncn2[C@@H]1O[C@@H]2COP(=O)(O)OC3C(O)[C@@H](COP(=O)(O)OC2C1O)C[C@H]3n1cnc2c(=O)[nH]cnc21 (stereo partly drawn) [Compound 120, (6R,8R,15R,17R)-8-(6-amino-9H-purin-9-yl)-3,9,12,18-tetrahydroxy-17-(6-oxo-6,9-dihydro-1H-purin-9-yl)-2,4,7,11,13-pentaoxa-3λ^5,12λ^5-diphosphatricyclo[13.2.1.0^6,10]octadecane-3,12-dione] |
